Results: patent US11945794B2, “Nuclear transport modulators and uses thereof” (Karyopharm Therapeutics Inc., priority 2013, dated 2024)

Legend:
Assay in all cases: MTT assay panel
Assay type in all cases: cell-based
PL-45 = conditions: PL45; PL-45 cells, 72 hours
Method: (§1) Compound 124 was further tested against a panel of selected solid and hematological cancer cell lines and selected normal cell lines in an MTT assay. Briefly, the various cell lines above were plated at different densities on day 1. […] Cell Titer AQueous One was added to each well, and the plates were read in a plate reader at OD 495.

DB = conditions: Homo sapiens; DB cells, 72 hours
Method: as §1

MHCC97H = conditions: Homo sapiens; MHCC97H cells, 72 hours
Method: as §1

3T3 = conditions: Mus musculus, NIH3T3; 3T3 cells, 72 hours
Method: as §1

LN18 = conditions: Homo sapiens, LN-18; LN18 cells, 72 hours
Method: as §1

Z-138 = conditions: Homo sapiens; Z-138 cells, 72 hours
Method: as §1

NCI-H1563 = conditions: Homo sapiens; NCI-H1563 cells, 72 hours
Method: as §1

NCI-H1650 = conditions: Homo sapiens; NCI-H1650 cells, 72 hours
Method: as §1

HCC-827 = conditions: Homo sapiens, HCC827; HCC-827 cells, 72 hours
Method: as §1

HuCCT-1 = conditions: Homo sapiens; HuCCT-1 cells, 72 hours
Method: as §1

AML-193 = AML-193 cells, 72 hours
Method: as §1

Toledo = conditions: Homo sapiens; Toledo cells, 72 hours
Method: as §1

HT1080 = conditions: Homo sapiens, HT-1080; HT1080 cells, 72 hours
Method: as §1

LS-180 = conditions: Homo sapiens, LS180; LS-180 cells, 72 hours
Method: as §1

NCI-H1993 = conditions: Homo sapiens; NCI-H1993 cells, 72 hours
Method: as §1

Daudi = conditions: Homo sapiens; Daudi cells, 72 hours
Method: as §1

MINO = conditions: Homo sapiens; MINO cells, 72 hours
Method: as §1

RL = conditions: Homo sapiens; RL cells, 72 hours
Method: as §1

HPAF-II = conditions: Homo sapiens; HPAF-II cells, 72 hours
Method: as §1

THP1 = conditions: Homo sapiens, THP-1; THP1 cells, 72 hours
Method: as §1

NCI-H820 = NCI-H820 cells, 72 hours
Method: as §1

Farage = Farage cells, 72 hours
Method: as §1

U-266 = conditions: Homo sapiens; U-266 cells, 72 hours
Method: as §1

SHP-77 = conditions: Homo sapiens, SHP77; SHP-77 cells, 72 hours
Method: as §1

Calu-3 = conditions: Homo sapiens; Calu-3 cells, 72 hours
Method: as §1

SW-837 = conditions: Homo sapiens, SW837; SW-837 cells, 72 hours
Method: as §1

TFK-1 = TFK-1 cells, 72 hours
Method: as §1

NCI-H226 = conditions: Homo sapiens; NCI-H226 cells, 72 hours
Method: as §1

SW-1116 = conditions: Homo sapiens; SW-1116 cells, 72 hours
Method: as §1

PATU-8902 = PATU-8902 cells, 72 hours
Method: as §1

HS-Sultan = HS-Sultan cells, 72 hours
Method: as §1

SW-480 = conditions: Homo sapiens, SW480; SW-480 cells, 72 hours
Method: as §1

NCI-H889 = conditions: Homo sapiens; NCI-H889 cells, 72 hours
Method: as §1

IMR-90 = conditions: Homo sapiens; IMR-90 cells, 72 hours
Method: as §1

NCI-H520 = conditions: Homo sapiens; NCI-H520 cells, 72 hours
Method: as §1

AU-565 = conditions: Homo sapiens, AU565; AU-565 cells, 72 hours
Method: as §1

NCI-H187 = conditions: Homo sapiens; NCI-H187 cells, 72 hours
Method: as §1

MO7e = MO7e cells, 72 hours
Method: as §1

SNU-398 = conditions: Homo sapiens; SNU-398 cells, 72 hours
Method: as §1

SW-948 = conditions: Homo sapiens, SW948; SW-948 cells, 72 hours
Method: as §1

Compound: NC(=O)/C(=C/n1cnc(-c2cc(C(F)(F)F)cc(C(F)(F)F)c2)n1)c1cncnc1 [Compound 124, (E)-3-(3-(3,5-bis(trifluoromethyl)phenyl)-1H-1,2,4-triazol-1-yl)-2-(pyrimidin-5-yl)acrylamide]
- IC50 (PL-45): 6940 nM
- IC50 (DB): 60 nM
- IC50 (MHCC97H): > 10000 nM
- IC50 (3T3): 1100 nM
- IC50 (LN18): 2060 nM
- IC50 (Z-138): 6 nM
- IC50 (NCI-H1563): 7820 nM
- IC50 (NCI-H1650): > 10000 nM
- IC50 (HCC-827): 460 nM
- IC50 (HuCCT-1): 50 nM
- IC50 (AML-193): 1930 nM
- IC50 (Toledo): 70 nM
- IC50 (HT1080): 310 nM
- IC50 (LS-180): > 10000 nM
- IC50 (NCI-H1993): > 10000 nM
- IC50 (Daudi): 8 nM
- IC50 (MINO): 20 nM
- IC50 (RL): 20 nM
- IC50 (HPAF-II): > 10000 nM
- IC50 (THP1): 3380 nM
- IC50 (NCI-H820): 3400 nM
- IC50 (Farage): 460 nM
- IC50 (U-266): 230 nM
- IC50 (SHP-77): 410 nM
- IC50 (Calu-3): 1380 nM
- IC50 (SW-837): 500 nM
- IC50 (TFK-1): > 10000 nM
- IC50 (NCI-H226): 30 nM
- IC50 (SW-1116): 410 nM
- IC50 (PATU-8902): 410 nM
- IC50 (HS-Sultan): 60 nM
- IC50 (SW-480): 10000 nM
- IC50 (NCI-H889): 1020 nM
- IC50 (IMR-90): > 10000 nM
- IC50 (NCI-H520): 1300 nM
- IC50 (AU-565): 490 nM
- IC50 (NCI-H187): 530 nM
- IC50 (MO7e): 20 nM
- IC50 (SNU-398): 970 nM
- IC50 (SW-948): > 10000 nM
